Measured values from article PMC3904085 (Frontiers in Neuroscience, 2014).
Entries after “also recorded” stand apart in the source; their conditions may differ. Where two headings read alike, the source gives them in different places.

Assays:
[1] = Rat exposure (plasma and brain pharmacokinetics); format: in vivo, Sprague–Dawley rats; conditions: for concentration at 2 h / Cmax / Tmax / AUC(0-t): male, Sprague-Dawley; for AUC(0-t): read-out: AUC0–6 h
Experimental: Two cohorts of rats were used in each study, with samples taken from one cohort at 0.5, 1, and 2 h post-dose, and samples taken from the second cohort at 1.5, 4, and 6 h post-dose. The first cohort of animals was sacrificed at 2 h post-dose, and the second at 6 h post-dose to allow for collection of brain samples.

[2] = Plasma and brain binding by equilibrium dialysis (unbound fraction); format: in vitro ADME; conditions: rat, equilibrium dialysis at 1 μM
[3] = system: c-Fos protein in rat medial prefrontal cortex; test: Restraint-stress-induced c-Fos activation (ELISA); conditions: 30 mg/kg
Experimental: Thirty min later, rats were restrained in a rigid plastic flat-bottom restraint tube (Braintree Scientific, Inc.; Braintree, MA, USA) for 20 min. After the 20 min stress period, rats were moved to a new cage and housed individually. Rats were sacrificed 2 h after stress onset. […] Immediately after sacrifice, brains were removed, the medial prefrontal cortex (mPFC), a brain area implicated in the pathophysiology of depression, was dissected from both hemispheres and frozen in 1.5 ml centrifuge tubes in dry ice, and stored at −80°C for later analysis.
Frozen mPFC tissues were removed from the −80°C freezer and placed on ice. Tissue was homogenized with a dounce homogenizer. The nuclear extract was prepared from the homogenized samples as per manufacturer's instructions using a CHEMICON ®Nuclear Extraction Kit (Millipore; Billerica, MA, USA). Protein concentrations were determined in the nuclear extracts using the Pierce BCA Protein Assay kit (Pierce Biotechnology, Inc., Rockford, IL, USA). Nuclear fractions were then assayed for Fos protein levels using the Pierce c-Fos Transcription Factor Kit (Pierce Biotechnology, Inc., Rockford, IL, USA), according to the manufacturer's instructions. […] Data were analyzed and plotted using GraphPad Prism (GraphPad Software, Inc.; La Jolla, CA, USA).

[4] = system: C57Bl/6 mice; test: DRL 36-s schedule of reinforcement in wild-type mice; format: in vivo, mouse; conditions: for Lever Presses Mean / Reinforcers Mean: WT mice DRL-36-s, raw data
Text: (§1) The levers in these chambers were mounted on one wall with an adjacent food magazine next to the lever in the middle of the wall. A reinforced response caused a clicker apparatus to activate and the pellet feeder to deposit one 45-mg sucrose pellet (BioServ, Frenchtown, NJ) into the food magazine. The house light, which was mounted on the ceiling, was turned on when the session began, remained on throughout the entire session, and was turned off at the end of the session. Each experimental chamber was enclosed in a melamine sound-attenuating cubicle and equipped with a white noise generator to provide masking noise.
(§2) Each mouse was initially trained under a variable time 60-s operant schedule for 5 days, followed by fixed ratio-1 ratio schedule for 5 days. After the mice had acquired lever-pressing behavior, they were trained during daily DRL 6-s sessions for ~1 week, then mice progressed through weekly ascending DRL requirements (12, 18, 24, 30 s) before moving to DRL 36-s sessions. […] Experimental sessions lasted for 45 min and were conducted 5 days/week during light hours.
(§3) Drugs were administered to the animals once or twice weekly with at least 1 week between subsequent drugs to minimize possible carryover effects. Drug treatments were administered on Tuesdays and Fridays. No treatments were administered on other test days. Wednesdays were control days. “Control” behavior was calculated as the pooled mean lever presses or reinforcers received during Wednesday sessions across all Wednesdays for the duration of each study. Performance was normalized to percent of control by dividing total responses (or reinforcers) for each drug or vehicle treatment by the mean number of responses (reinforcers) in the respective pooled control condition, multiplied by 100.
(§4) The data analyses were conducted on the raw response and reinforcement data. All behavioral data are expressed as the mean ± s.e.m. normalized to the control condition.

[5] = system: mice lacking OX1 receptors; test: DRL 36-s schedule of reinforcement in OX1 KO mice; format: in vivo, mouse; conditions: for Lever Presses Mean / Reinforcers Mean: OX1 KO mice DRL-36-s, raw data
Text: (§5) Rats were acclimated to housing conditions for 4 days, followed by sham dosing once daily for 3 days, prior to the experiment. For DRL experiments, male Sprague–Dawley rats weighing between 300 and 350 g at the beginning of the behavioral experiments (Holtzman, Madison, WI) were housed in pairs. For mouse DRL studies, male C57Bl/6 mice (Taconic Farms, Hudson, NY) or mice lacking either OX1 or OX2 receptors, around 8 weeks of age, were obtained from private breeding colonies at Taconic Farms (Hudson, NY). OX1 and OX2 receptor knockout mice were generated using in vitro fertilization of embryos in C57Bl/6 female mice with sperm harvested from male mice obtained from the University of Texas Southwestern Medical Center (Dallas, TX), and backcrossed for at least 10 generations. Mice and rats were housed in separate colony rooms, which were maintained at 22°C and 60% relative humidity. For rat DRL experiments, water was available for a 20-min period following the daily behavioral session. Based on recommendations from the animal care and use committee, the mouse DRL assay was developed using food deprivation rather than water deprivation. […] All experiments were conducted during the light cycle and in compliance with the Guide for the Care and Use of Laboratory Animals under protocols approved by a local animal care and use committee.
as §1, §2, §3, §4

[6] = system: mice lacking OX2 receptors; test: DRL 36-s schedule of reinforcement in OX2 KO mice; format: in vivo, mouse; conditions: for Lever Presses Mean / Reinforcers Mean: OX2 KO mice DRL-36-s, raw data
Text: as §5, §1, §2, §3, §4

[7] = set-up: method as in earlier work; conditions: ref Fitch et al., unpublished results; Anderson et al., under review; cited from earlier work
[8] = system: Sprague–Dawley rats; test: DRL 72-s schedule of reinforcement in rats; format: in vivo, rat; conditions: for Lever Presses Mean / Reinforcers Mean: HSD rats DRL-72-s, raw data
Text: Each chamber was enclosed in a melamine sound-attenuating cubicle. A white noise generator provided masking noise. The interior of each chamber consisted of three levers mounted on one wall with a house light mounted on the opposite wall. The house light was turned on at initiation of each test session and was turned off at the termination of each session. A water access port was situated next to the lever in the middle of the wall, wherein a reinforced response caused a clicker apparatus to sound paired with a dipper (0.02-ml cup) to be lifted from a water trough to an opening in the floor of the access port for 4 s.
Rats were initially trained under an alternative fixed ratio 1 water reinforcement schedule with a fixed 1-min time schedule for automatic reinforcement. Thus, each response was reinforced, with water also provided every minute in the absence of a response. […] Following acquisition of lever-pressing behavior, rats were trained daily on DRL 18-s sessions for ~2 weeks, following which they were advanced to DRL 72-s sessions. Responding on these sessions became stable after ~8 weeks. Experimental test sessions lasted for 1 h and were conducted 5 days/week during light hours.
as §3, §4

[9] = 30 mg/kg PO, two hours post treatment, Ctotal × Fu
[10] = mice lacking OX1 receptors, DRL-36-s, 20 mg/kg

Cl.O=S(=O)(c1ccc(F)cc1)N(Cc1ncc[nH]1)c1ccccc1-c1ccccc1 [LSN2424100, N-((1H-imidazol-2-yl)methyl)-N-([1,1′-biphenyl]-2-yl)-4-fluorobenzenesulfonamide hydrochloride]
Cu (unbound concentration) brain [1, 9]: 0.67 nM | Cu (unbound concentration) plasma [1, 9]: 3.52 nM | concentration at 2 h ([1]; brain, 30 mg/kg IP, two hours post treatment, read-out: Brain concentration): 77.2 ng/g | concentration at 2 h ([1]; brain, 30 mg/kg PO, two hours post treatment, read-out: Brain concentration): 33.5 ng/g | Cmax ([1]; plasma, 30 mg/kg IP): 1170 ng/mL | Tmax ([1]; plasma, 30 mg/kg IP): 30 min | AUC(0-t) ([1]; plasma, 30 mg/kg IP): 1300 ng·h/mL | concentration at 2 h ([1]; plasma, 30 mg/kg IP, two hours post treatment, read-out: Plasma concentration): 149 ng/mL | Cmax ([1]; plasma, 30 mg/kg PO): 196 ng/mL | Tmax ([1]; plasma, 30 mg/kg PO): 30 min | AUC(0-t) ([1]; plasma, 30 mg/kg PO): 269 ng·h/mL | concentration at 2 h ([1]; plasma, 30 mg/kg PO, two hours post treatment, read-out: Plasma concentration): 45.8 ng/mL | fraction unbound at 1 μM ([2]; brain, read-out: Fu (fraction unbound) brain): 0.0089 | fraction unbound at 1 μM ([2]; plasma, read-out: Fu (fraction unbound) plasma): 0.0341 | Effect on restraint stress-induced increase in c-fos expression in prefrontal cortex ([3]; 30 mg/kg IP 30 min before 20 min restraint): attenuated; also recorded: blocked | c-fos protein levels in prefrontal cortex without stress (home cage) vs vehicle ([3]; 30 mg/kg IP, no restraint stress): no effect | Lever presses emitted ([4]; C57Bl/6 mice DRL-36-s, 10 mg/kg IP): 50 % of control | Decrease in lever presses emitted, in words ([4]; C57Bl/6 mice DRL-36-s, 20 mg/kg): did not reach statistical significance | Reinforcers received (maximum increase) ([4]; C57Bl/6 mice DRL-36-s, doses 3–20 mg/kg IP, did not reach statistical significance): up to 225 % of control | Lever Presses Mean ([4]; dose 3 mg/kg): 153.38 | Reinforcers Mean ([4]; dose 3 mg/kg): 15.00 | Lever Presses Mean ([4]; dose 10 mg/kg): 83.88 | Reinforcers Mean ([4]; dose 10 mg/kg): 18.75 | Lever Presses Mean ([4]; dose 20 mg/kg): 105.43 | Reinforcers Mean ([4]; dose 20 mg/kg): 28.00 | Lever Presses Mean ([5]; dose 3 mg/kg): 164.38 | Reinforcers Mean ([5]; dose 3 mg/kg): 23.13 | Lever Presses Mean ([5]; dose 10 mg/kg): 174.75 | Reinforcers Mean ([5]; dose 10 mg/kg): 20.00 | Lever Presses Mean ([5]; dose 20 mg/kg): 105.25 | Reinforcers Mean ([5]; dose 20 mg/kg): 31.75 | Lever presses emitted [5, 10]: 50 % of control | Reinforcers received [5, 10]: 200 % of control | Lever Presses Mean ([6]; dose 10 mg/kg): 171.75 | Reinforcers Mean ([6]; dose 10 mg/kg): 18.88 | Lever Presses Mean ([6]; dose 20 mg/kg): 160.00 | Reinforcers Mean ([6]; dose 20 mg/kg): 23.38 | Lever Presses Mean ([6]; dose 40 mg/kg): 158.25 | Reinforcers Mean ([6]; dose 40 mg/kg): 26.25 | Change in reinforcers received or lever presses emitted, in words ([6]; mice lacking OX2 receptors, doses up to 40 mg/kg): no significant change | Direct effects on food or water intake [7]: no direct effects | Lever Presses Mean ([8]; dose 3 mg/kg): 67.86 | Reinforcers Mean ([8]; dose 3 mg/kg): 10.71 | Lever Presses Mean ([8]; dose 10 mg/kg): 48.14 | Reinforcers Mean ([8]; dose 10 mg/kg): 12.14 | Lever Presses Mean ([8]; dose 30 mg/kg IP): 56.00 | Reinforcers Mean ([8]; dose 30 mg/kg IP): 15.43 | Total lever presses emitted ([8]; rats DRL-72-s, 10 mg/kg, normalized to control days): 60 % of control | Lever presses made ([8]; rats DRL-72-s, 30 mg/kg IP): 70 % of control | Reinforcers received ([8]; rats DRL-72-s, 30 mg/kg IP): 170 % of control
